Entries after “also recorded” stand apart in the source; their conditions may differ.

Here are results for 15 compounds from patent US6258815A, “Specific immunophilin ligands as antiasthmatics and immunosuppressants” (ASTA Medica Aktiengesellschaft, priority 1996, dated 2001).

The test system of one experiment is CypB-CsA. Description: displacement of 3H-CsA from CypB-CsA (gel filtration of T cell homogenate). The experiment is classed as binding, human. To be noted: Compound [10 μmol]; 3H-CsA (100 nmol). As for the experimental part: (§1) To study the interaction with this supermolecule from CsA-CypB or CsA-CypB-calcineurin, the compounds of the general formula I according to the invention were incubated with cell homogenate of a human T cell line containing ^3 H-CsA (100 nmol). After gel filtration on Superose 12, the radioactivity of the eluted fractions was measured and compared with the untreated control. The corresponding displacement of ^3 H-CsA from the supermolecules CypB-CsA and CypB-CsA-calcineurin by the compounds of the general formula I according to the invention is shown in Table 2: […]

The next experiment has as its system CypB-CsA-calcineurin. Description: displacement of 3H-CsA from CypB-CsA-calcineurin (gel filtration of T cell homogenate). The experiment is classed as binding, human. To be noted: Compound [10 μmol]; 3H-CsA (100 nmol). As for the experimental part: as §1
For orientation: Loss of bound radioactivity is the signal in a displacement assay; it reports binding, not function.

A further experiment addresses human cyclophilin B (Homo sapiens, UniProt P23284). Description: PPlase test (inhibition of peptidyl-prolyl cis/trans-isomerase activity). The experiment is classed as biochemical. Particulars: Compound [10 μmol], human CypB. As for the experimental part:
The compounds of the formula (I) according to the invention are distinguished by binding to immunophilins and inhibit their isomerase activity. This prolyl isomerase activity is assayed by an enzyme test conventionally used throughout the world: G. Fischer, H. Bang, A. Schellenberger, Biochim. Biophys. Acta, 791, 87-97, 1984; D. H. Rich et al., J. Med. Chem. 38, 4164-4170, 1995.
[…] This PPlase activity is assayed by an enzyme test conventionally used throughout the world: G. Fischer, H. Bang, C. Mech, Biomed. Biochim. Acta, 43, 1101-1111; G. Fischer, R. Bang, A. Schellenberger, Biochim. Biophys. Acta, 791, 87-97, 1984; D. H. Rich et al., J. Med. Chem. 38, 4164-4170, 1995.
The compounds of the general formula I according to the invention are preincubated together with 10 nmol of CypB for 15 min at 4° C. The enzyme reaction is started after the addition of chymotrypsin and HEPES buffer with the test peptide Suc-Ala-Ala-Pro-Phe-Nan. The change in extinction at 390 nm is then monitored and evaluated. The change in extinction determined by photometry results from two partial reactions: a) the rapid chymotryptic cleavage of the trans-peptide; and b) the […] cis/trans isomerization catalysed by cyclophilins.

For experiment [1], the system named is T cells stimulated with OKT-3. Description: IL-2 proliferation test (3H-thymidine incorporation into T cells stimulated with OKT-3). The experiment is classed as cell-based. To be noted: Homo sapiens, T-cell; Compound [10 μmol]; 45 h incubation, OKT-3 1 μg/ml; read-out: CD3-induced inhibition of proliferation in [%]. The method, then:
The IL-2 proliferation test is based on the incorporation of ^3 H-thymidine into T cells stimulated with OKT-3 (human anti-CD3 antibodies) and is performed as follows:
100,000 T cells are inoculated into 150 μl of culture medium per well in microtitre plates, stimulated by the addition of OKT-3 (1 μg/ml) and incubated for 45 h with each of the compounds of the general formula I according to the invention. After this incubation period, 10 μl of the ^3 H-thymidine solution (0.5 μCi) are pipetted into each well. Incubation is then carried out for 6 h at 37° C. in a 5% CO2 atmosphere. After the cells have been harvested, the radioactivity is quantified in a β-counter. The corresponding CD3-induced inhibition of proliferation by the compounds of the general formula I according to the invention is shown in Table 3: […]

Experiment [2] has as its system IL-2 gene transcription in T cells. To be noted: cited from earlier work.
The next experiment concerns FKBP. To be noted: cited from earlier work.
Experiment [3] deals with cytokines, like IL-2, IL-4 and IL-5. Particulars: animal experiments; reference substances; cited from earlier work.

Sequence of human cyclophilin B (P23284 34-216): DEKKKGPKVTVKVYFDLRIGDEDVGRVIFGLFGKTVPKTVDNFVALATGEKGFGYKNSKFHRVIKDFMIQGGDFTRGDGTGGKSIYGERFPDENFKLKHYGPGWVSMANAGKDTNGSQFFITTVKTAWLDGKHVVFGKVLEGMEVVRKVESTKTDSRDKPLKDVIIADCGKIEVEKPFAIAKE

For `COC(=O)C1Cc2ccccc2N1C(=O)C1CCN(C(=O)Cc2ccc(OC)cc2)CC1` (racemic) [Example 8, N-[N'-(4-methoxyphenylacetyl)piperidyl-4-carbonyl]indoline-2-(R,S)-carboxylic acid methyl ester], the “Displacement from CypB-CsA in [%]” value with CypB-CsA was determined as 0%. Also, the “Displacement from CypB-CsA-CN in [%]” value with CypB-CsA-calcineurin is given as 8%. On human cyclophilin B, this compound returned an inhibition at 10 µM of 0 to 20%.
With `COC(=O)C1Cc2ccccc2N1C(=O)Cc1ccc(OC)cc1` (racemic) [Example 9, N-(4-methoxyphenylacetyl)indoline-2-(R,S)-carboxylic acid methyl ester], the “Displacement from CypB-CsA in [%]” value in the experiment with CypB-CsA stood at 39%. Also, in the experiment with CypB-CsA-calcineurin, the “Displacement from CypB-CsA-CN in [%]” value amounted to 37%. Further, at human cyclophilin B, the inhibition at 10 µM lay in the range of 0 to 20%.
Take `CC(C)(C)OC(=O)N1c2ccccc2CC1C(=O)Nc1ccncc1` (racemic) [Example 10]: the inhibition in experiment [1] was found to be 6%. Also, the “Displacement from CypB-CsA in [%]” value in the experiment on CypB-CsA is -58%. Besides, in the experiment with CypB-CsA-calcineurin, the “Displacement from CypB-CsA-CN in [%]” value is on record as 0%. The same compound returned an inhibition at 10 µM against human cyclophilin B of 0 to 20%.
For `CC(C)(C)OC(=O)N1c2ccccc2CC1C(=O)N1CCN(CC(=O)N2CCOCC2)CC1` (racemic) [Example 11, N-Boc-indoline-2-(R,S)-carboxylic acid (piperazinoacetic acid morpholide)amide] the same measures were 9%, -28%, 0% and 0 to 20%.
For `CC(C)(C)OC(=O)N1CCC(C(=O)N2c3ccccc3CC2C(=O)N2CCN(CC(=O)N3CCOCC3)CC2)CC1` (racemic) [Example 12, N-[1-Boc-piperidyl-4-carbonyl]indoline-2-(R,S)-carboxylic acid (piperazinoacetic acid morpholide)amide] the same measures were 5%, 8%, -25% and 0 to 20%.
Regarding `COC(=O)[C@H](CCCCNC(=O)OC(C)(C)C)NC(=O)C1Cc2ccccc2N1C(=O)C1CCN(C(=O)OC(C)(C)C)CC1` (stereo partly drawn) [Example 1, N-[1-Boc-piperidyl-4-carbonyl]indoline-2-(R,S)-carboxylic acid [S-(N-ε-Boc)lysinemethyl ester]amide], in experiment [1], the inhibition amounted to 86%. In addition, in the experiment on CypB-CsA, the “Displacement from CypB-CsA in [%]” value was 10%. Also, the “Displacement from CypB-CsA-CN in [%]” value with CypB-CsA-calcineurin came out at 45%. On human cyclophilin B, this compound came in with an inhibition at 10 µM of 0 to 20%.
For `COC(=O)[C@H](CCCCN)NC(=O)C1Cc2ccccc2N1C(=O)C1CCNCC1` (stereo partly drawn) [Example 2, N-[piperidyl-4-carbonyl]indoline-2-(R,S)-carboxylic acid [S-(ε-NH2)lysinemethyl ester]amide], the inhibition in experiment [1] came out at 40%. In addition, in the experiment with CypB-CsA, the “Displacement from CypB-CsA in [%]” value is recorded as 45%. For the same compound, the “Displacement from CypB-CsA-CN in [%]” value in the experiment with CypB-CsA-calcineurin was -53%. On human cyclophilin B, this compound displayed an inhibition at 10 µM of 0 to 20%.
Turning to `COC(=O)[C@H](CCCCNC(=O)OC(C)(C)C)NC(=O)C1Cc2ccccc2N1C(=O)C1Cc2ccccc2N1C(=O)OC(C)(C)C` (stereo partly drawn) [Example 3, N-[1-Boc-indoline-2-(R,S)-carbonyl]indoline-2-(R,S)-carboxylic acid [S-(N-ε-Boc)lysinemethyl ester]amide], the inhibition in experiment [1] came out at 82%. Further, the “Displacement from CypB-CsA in [%]” value with CypB-CsA was determined as 14%. Moreover, in the experiment on CypB-CsA-calcineurin, the “Displacement from CypB-CsA-CN in [%]” value was 22%. Besides, the inhibition at 10 µM against human cyclophilin B was 0 to 20%.
`COC(=O)[C@H](CCCCN)NC(=O)C1Cc2ccccc2N1C(=O)C1Cc2ccccc2N1` (stereo partly drawn) [Example 4, N-[indoline-2-(R,S)-carbonyl]indoline-2-(R,S)-carboxylic acid [S-(ε-NH2)lysinemethyl ester]amide]: the inhibition in experiment [1] stood at 38%. Further, the “Displacement from CypB-CsA in [%]” value in the experiment on CypB-CsA was 33%. Further, in the experiment on CypB-CsA-calcineurin, the “Displacement from CypB-CsA-CN in [%]” value was -42%. Besides, the inhibition at 10 µM against human cyclophilin B is 0 to 20%.
Regarding `COC(=O)[C@H](CCCCNC(=O)OCc1ccccc1)NC(=O)C1Cc2ccccc2N1C(=O)C1Cc2ccccc2N1C(=O)OC(C)(C)C` (stereo partly drawn) [Example 5, N-[1-Boc-indoline-2-(R,S)-carbonyl]indoline-2-(R,S)-carboxylic acid [S-(N-ε-Z)lysinemethyl ester]amide], the inhibition in experiment [1] is 92%. Further, the “Displacement from CypB-CsA in [%]” value in the experiment with CypB-CsA was 16%. The “Displacement from CypB-CsA-CN in [%]” value in the experiment with CypB-CsA-calcineurin came out at 20%. The compound further had an inhibition at 10 µM at human cyclophilin B of 0 to 20%.
On to `COC(=O)[C@H](CCCCNC(=O)OCc1ccccc1)NC(=O)C1Cc2ccccc2N1C(=O)OC(C)(C)C` (stereo partly drawn) [Example 6, 1-Boc-indoline-2-(R,S)-carboxylic acid [S-(N-ε-Z)lysinemethyl ester]amide], for which the inhibition in experiment [1] was 84%. For the same compound, the “Displacement from CypB-CsA in [%]” value in the experiment on CypB-CsA was determined as 0%. Also, in the experiment on CypB-CsA-calcineurin, the “Displacement from CypB-CsA-CN in [%]” value stood at 7%. The compound also had an inhibition at 10 µM at human cyclophilin B of 20 to 40%.
Turning to `COC(=O)[C@H](Cc1ccccc1)NC(=O)C1Cc2ccccc2N1C(=O)OC(C)(C)C` (stereo partly drawn) [Example 7, 1-Boc-indoline-2-(R,S)-carboxylic acid (S-phenylalanine methyl ester)amide], in experiment [1], the inhibition worked out at 7%. The “Displacement from CypB-CsA in [%]” value with CypB-CsA is recorded as 38%. Also, in the experiment with CypB-CsA-calcineurin, the “Displacement from CypB-CsA-CN in [%]” value is on record as 0%. The same compound came in with an inhibition at 10 µM at human cyclophilin B of 0 to 20%.
Take `COC(=O)[C@H](CCCCNC(=O)OCc1ccccc1)NC(=O)C1Cc2ccccc2N1C(=O)C1CCN(C(=O)Cc2ccc(OC)cc2)CC1` (stereo partly drawn) [Example 13, N-[N'-(4-methoxyphenylacetyl)piperidyl-4-carbonyl]indoline-2-(R,S)-carboxylic acid [S-(N-ε-Z)lysinemethyl ester]amide]: the inhibition in experiment [1] turned out to be 66%. For the same compound, the “Displacement from CypB-CsA in [%]” value with CypB-CsA is 46%. Moreover, the “Displacement from CypB-CsA-CN in [%]” value in the experiment on CypB-CsA-calcineurin is -16%. The compound also displayed an inhibition at 10 µM on human cyclophilin B of 0 to 20%.
In the case of `C=CC[C@@H]1/C=C(\C)C[C@H](C)C[C@H](OC)[C@H]2O[C@@](O)(C(=O)C(=O)N3CCCC[C@H]3C(=O)O[C@H](/C(C)=C/[C@@H]3CC[C@@H](O)[C@H](OC)C3)[C@H](C)[C@@H](O)CC1=O)[C@H](C)C[C@@H]2OC` [FK 506], in experiment [2], the “inhibition of gene transcription including the IL-2 gene” value was “inhibit the transcription of a number of genes, including the IL-2 gene”. The “binding affinity to receptor protein FKBP” value in the experiment on FKBP is “bind with high affinity”. The “blocking of cytokines, like IL-2, IL-4 and IL-5” value in experiment [3] is “blocking of various cytokines, like IL-2, IL-4 and IL-5; also recorded: exhibit the blocking of cytokines, like IL-2, IL-4 and IL-5”.
`CO[C@H]1C[C@@H]2CC[C@@H](C)[C@@](O)(O2)C(=O)C(=O)N2CCCC[C@H]2C(=O)O[C@H]([C@H](C)C[C@@H]2CC[C@@H](O)[C@H](OC)C2)CC(=O)[C@H](C)/C=C(\C)[C@@H](O)[C@@H](OC)C(=O)[C@H](C)C[C@H](C)/C=C/C=C/C=C/1C` [rapamycin]: in experiment [3], the “blocking of cytokines, like IL-2, IL-4 and IL-5” value is “exhibit the blocking of cytokines, like IL-2, IL-4 and IL-5”.
